“And” between values parts separate entries of the source, which are not always exact repeats. Equal values may be shown once. Read-outs that look alike come from different tables or passages of the source.
Tests used:
HER2 = HER2 (Homo sapiens, UniProt P04626); experiment: In vitro protein kinase inhibition assay (ELISA kit), HER2
MCF-7 [1] = experiment: In vitro anti-estrogenic activity assay, MCF-7
MDA-MB-231 = experiment: MTT cytotoxicity assay, MDA-MB-231; assay type: cell-based; conditions: Homo sapiens, 24 h treatment, mean ± SD of triplicate
Description: (§1) Subsequently, 100 µL of dimethyl sulfoxide was introduced to dissolve the insoluble formazan.

VEGFR-2 = VEGFR-2 (Homo sapiens, UniProt P35968); experiment: In vitro protein kinase inhibition assay (ELISA kit), VEGFR-2; conditions: individual Data 1-3
VEGFR-2, sequence (P35968 20-1356): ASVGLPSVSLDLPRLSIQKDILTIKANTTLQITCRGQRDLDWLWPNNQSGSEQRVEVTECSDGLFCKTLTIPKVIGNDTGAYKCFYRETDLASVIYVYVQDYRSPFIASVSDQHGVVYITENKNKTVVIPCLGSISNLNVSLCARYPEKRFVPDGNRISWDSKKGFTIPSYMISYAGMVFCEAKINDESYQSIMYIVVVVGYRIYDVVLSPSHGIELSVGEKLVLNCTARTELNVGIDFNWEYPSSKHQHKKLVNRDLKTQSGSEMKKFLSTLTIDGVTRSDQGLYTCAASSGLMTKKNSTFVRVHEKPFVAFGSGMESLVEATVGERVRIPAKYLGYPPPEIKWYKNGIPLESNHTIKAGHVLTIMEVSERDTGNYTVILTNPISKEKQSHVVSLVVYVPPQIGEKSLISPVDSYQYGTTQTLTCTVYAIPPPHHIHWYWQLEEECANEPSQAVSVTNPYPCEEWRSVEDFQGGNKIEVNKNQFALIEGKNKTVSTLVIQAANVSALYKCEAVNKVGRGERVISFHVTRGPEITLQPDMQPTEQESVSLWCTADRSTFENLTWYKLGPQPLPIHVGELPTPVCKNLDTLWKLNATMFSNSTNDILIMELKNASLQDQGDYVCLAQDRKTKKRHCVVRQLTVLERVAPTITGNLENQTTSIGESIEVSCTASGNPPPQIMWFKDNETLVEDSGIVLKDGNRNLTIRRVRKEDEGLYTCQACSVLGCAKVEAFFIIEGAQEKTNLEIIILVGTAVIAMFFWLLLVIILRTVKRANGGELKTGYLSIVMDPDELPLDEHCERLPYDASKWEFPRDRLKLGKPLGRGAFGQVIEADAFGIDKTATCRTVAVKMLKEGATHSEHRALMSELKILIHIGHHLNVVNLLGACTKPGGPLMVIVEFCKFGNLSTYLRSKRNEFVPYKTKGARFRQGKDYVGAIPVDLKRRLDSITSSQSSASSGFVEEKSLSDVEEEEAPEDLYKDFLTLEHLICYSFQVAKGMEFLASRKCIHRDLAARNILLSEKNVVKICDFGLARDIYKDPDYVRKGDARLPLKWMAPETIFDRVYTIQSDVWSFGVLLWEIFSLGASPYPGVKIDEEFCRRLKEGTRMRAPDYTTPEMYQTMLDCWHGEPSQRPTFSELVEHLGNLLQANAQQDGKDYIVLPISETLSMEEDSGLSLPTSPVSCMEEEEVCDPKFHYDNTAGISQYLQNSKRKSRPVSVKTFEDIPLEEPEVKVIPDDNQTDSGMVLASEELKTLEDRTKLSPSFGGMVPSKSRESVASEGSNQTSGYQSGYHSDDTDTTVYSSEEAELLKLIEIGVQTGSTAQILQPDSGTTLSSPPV

MCF-7a = experiment: In vitro anti-estrogenic activity assay, MCF-7a
[2] = molecular target: T1, aromatase (CYP19A, EC 1.14.14.14) (Homo sapiens, UniProt P11511); experiment: biochemical; conditions: individual Data 1-3
T1 construct: Microsomal samples were isolated from tissue using the Microsome Isolation Kit; tissue BioVision K983-100; host or cells: microsomes from an unnamed tissue
T1 sequence (P11511 1-503): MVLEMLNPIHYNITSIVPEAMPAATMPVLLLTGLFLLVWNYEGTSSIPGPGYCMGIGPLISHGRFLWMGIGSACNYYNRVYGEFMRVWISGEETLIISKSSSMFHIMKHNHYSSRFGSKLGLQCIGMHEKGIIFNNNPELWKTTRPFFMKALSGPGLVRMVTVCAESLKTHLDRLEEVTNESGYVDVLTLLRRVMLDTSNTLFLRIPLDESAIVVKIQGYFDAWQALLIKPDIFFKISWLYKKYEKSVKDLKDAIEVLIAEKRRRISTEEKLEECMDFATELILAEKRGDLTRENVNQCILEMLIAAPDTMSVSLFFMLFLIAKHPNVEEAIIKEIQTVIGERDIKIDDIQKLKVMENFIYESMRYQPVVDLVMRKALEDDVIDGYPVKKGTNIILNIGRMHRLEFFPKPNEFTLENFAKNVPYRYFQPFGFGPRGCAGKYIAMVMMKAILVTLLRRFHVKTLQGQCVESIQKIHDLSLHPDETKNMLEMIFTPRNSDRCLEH
Description: In vitro aromatase assay was performed using the BioVision Aromatase Activity Assay Kit (Catalog # K983-100; BioVision, Milpitas, CA, USA). Microsomal samples were isolated from tissue using the Microsome Isolation Kit (Cat. #K249; BioVision, Milpitas, CA, USA). A standard curve was established by diluting the Fluorescence Standard provided in the kit to create a 0.5 pmole/µL solution, followed by setting up a series of standards in a white 96-well plate, adjusting the total volume to 100 µL with aromatase assay buffer. For each reaction well, a 2X concentrated mix was prepared by adding 2–48 µL of the microsomal sample and 2 µL of the NADPH generating system, bringing the final volume to 50 µL with aromatase assay buffer. Background controls (no enzyme) and positive controls (with recombinant aromatase) were included. […] After a 10 min incubation at 37 °C, 30 µL of the substrate/NADP+ mixture was added to each well, and fluorescence was measured immediately in kinetic mode for 60 min at 37 °C. Finally, the change in fluorescence was calculated to determine the specific activity of aromatase using the formula provided in the kit protocol.

HeLa = experiment: MTT cytotoxicity assay, HeLa; assay type: cell-based; conditions: Homo sapiens, 24 h treatment, mean ± SD of triplicate
Description: as §1

[3] = test system: HCT-116, MDA-MB-231, HeLa, and MCF-7; experiment: MTT cytotoxicity assay, ranges stated over several cell lines; assay type: cell-based; conditions: Homo sapiens
Description: as §1

CDK2 = CDK2 (Homo sapiens, UniProt P24941); experiment: In vitro protein kinase inhibition assay (ELISA kit), CDK2
HCT-116 = experiment: MTT cytotoxicity assay, HCT-116; assay type: cell-based; conditions: Homo sapiens, 24 h treatment, mean ± SD of triplicate
Description: as §1

MCF-7 [4] = experiment: MTT cytotoxicity assay, MCF-7; assay type: cell-based, human; conditions: Homo sapiens, MCF7, 24 h, 24 h treatment, mean ± SD of triplicate
Description: as §1

[5] = MTT cytotoxicity assay, normal cell line WI-38; assay type: cell-based, human; conditions: human, WI-38 cells (normal human lung fibroblasts), normal (non-cancer) cell line, 24 h treatment
Description: as §1

[6] = cell count relative to the control (17β-E2)

HER2, sequence (P04626 23-1255): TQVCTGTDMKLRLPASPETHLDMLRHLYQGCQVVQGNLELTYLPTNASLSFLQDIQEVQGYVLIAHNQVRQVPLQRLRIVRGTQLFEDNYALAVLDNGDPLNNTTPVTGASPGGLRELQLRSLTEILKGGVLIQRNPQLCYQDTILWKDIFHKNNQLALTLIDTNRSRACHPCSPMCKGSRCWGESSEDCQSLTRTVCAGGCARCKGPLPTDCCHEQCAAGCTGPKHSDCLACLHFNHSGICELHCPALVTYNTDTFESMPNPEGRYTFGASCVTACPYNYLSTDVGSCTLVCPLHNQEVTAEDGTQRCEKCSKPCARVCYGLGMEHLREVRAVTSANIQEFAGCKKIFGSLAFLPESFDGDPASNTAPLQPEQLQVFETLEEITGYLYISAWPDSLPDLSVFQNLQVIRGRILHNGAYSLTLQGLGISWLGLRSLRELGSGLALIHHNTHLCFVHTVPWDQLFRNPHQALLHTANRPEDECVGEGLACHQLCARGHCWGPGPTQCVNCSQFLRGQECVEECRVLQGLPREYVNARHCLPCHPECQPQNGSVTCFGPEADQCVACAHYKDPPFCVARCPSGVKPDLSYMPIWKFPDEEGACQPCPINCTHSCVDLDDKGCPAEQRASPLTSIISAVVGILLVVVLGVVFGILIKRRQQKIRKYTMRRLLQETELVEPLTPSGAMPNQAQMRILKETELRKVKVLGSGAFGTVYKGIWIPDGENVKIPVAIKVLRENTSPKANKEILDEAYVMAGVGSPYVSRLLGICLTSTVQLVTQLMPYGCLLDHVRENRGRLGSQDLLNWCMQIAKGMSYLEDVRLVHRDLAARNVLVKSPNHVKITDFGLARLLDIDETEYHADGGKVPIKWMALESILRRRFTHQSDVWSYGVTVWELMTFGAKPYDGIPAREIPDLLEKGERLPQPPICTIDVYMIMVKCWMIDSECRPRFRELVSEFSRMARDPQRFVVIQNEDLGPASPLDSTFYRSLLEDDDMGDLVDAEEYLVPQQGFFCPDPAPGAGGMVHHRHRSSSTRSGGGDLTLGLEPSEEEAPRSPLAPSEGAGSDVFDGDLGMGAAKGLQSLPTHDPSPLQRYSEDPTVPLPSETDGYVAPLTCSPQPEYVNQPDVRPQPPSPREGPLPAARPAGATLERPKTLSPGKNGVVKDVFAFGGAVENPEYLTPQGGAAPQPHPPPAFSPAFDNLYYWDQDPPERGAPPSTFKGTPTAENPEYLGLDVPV

O=C(/C=C/c1ccc(O)cc1)c1ccccc1 [Compound 4b, (E)-3-(4-Hydroxyphenyl)-1-phenylprop-2-en-1-one]
IC50 (HER2): 0.387 ± 0.015 µM | Inhibition (%) Her2 (HER2; 0.01 µM, individual Data 1-3): 8.76% and 10.34% | Inhibition (%) Her2 (HER2; 0.1 µM, individual Data 1-3): 36.2% and 38.76% | Inhibition (%) Her2 (HER2; 1 µM, individual Data 1-3): 71.3% and 70.87% | Inhibition (%) Her2 (HER2; 10 µM, individual Data 1-3): 80.35% and 82.9% | Inhibition (%) Her2 (HER2; 100 µM, individual Data 1-3): 93% and 95.67% | inhibition at 0.01 µM (HER2; read-out: Inhibition (%) Her2, 0.01 µM, individual Data 1-3): 9.25% | inhibition at 0.1 µM (HER2; read-out: Inhibition (%) Her2, 0.1 µM, individual Data 1-3): 37.7% | inhibition at 1 µM (HER2; read-out: Inhibition (%) Her2, 1 µM, individual Data 1-3): 73% | inhibition at 10 µM (HER2; read-out: Inhibition (%) Her2, 10 µM, individual Data 1-3): 81.6% | inhibition at 100 µM (HER2; read-out: Inhibition (%) Her2, 100 µM, individual Data 1-3): 94.2% | Cell Proliferation MCF-7 % (MCF-7 [1]; [6]): 34% | Cell Proliferation MCF-7 Cell Count (MCF-7 [1]; mean ± SD of triplicate): 6213 ± 221 | Reduction of growth/cell count (inhibition) in MCF-7 (MCF-7 [1]; relative to control): 66% | IC50 (MDA-MB-231): 4.93 ± 0.3 µM | Inhibition (%) VEGFR2 (VEGFR-2; 0.01 µM): 19.2% and 19.7% | Inhibition (%) VEGFR2 (VEGFR-2; 0.1 µM): 48.2% and 48.6% | Inhibition (%) VEGFR2 (VEGFR-2; 1 µM): 73.4% | Inhibition (%) VEGFR2 (VEGFR-2; 10 µM): 89% and 90% | Inhibition (%) VEGFR2 (VEGFR-2; 100 µM): 95.9% | inhibition at 0.01 µM (VEGFR-2; read-out: Inhibition (%) VEGFR2, 0.01 µM): 19.4% | inhibition at 0.1 µM (VEGFR-2; read-out: Inhibition (%) VEGFR2, 0.1 µM): 48.3% | inhibition at 1 µM (VEGFR-2; read-out: Inhibition (%) VEGFR2, 1 µM): 73.8% | inhibition at 10 µM (VEGFR-2; read-out: Inhibition (%) VEGFR2, 10 µM): 89.5% | inhibition at 100 µM (VEGFR-2; read-out: Inhibition (%) VEGFR2, 100 µM): 96.1% | Cell Proliferation MCF-7a % (MCF-7a; [6]): 99% | Cell Proliferation MCF-7a Cell Count (MCF-7a; mean ± SD of triplicate): 20,669 ± 597 | Inhibition (%) Aromatase ([2]; 0.01 µM): 5.7% and 3.5% and 7.9% | Inhibition (%) Aromatase ([2]; 0.1 µM): 9.9% and 14.2% | Inhibition (%) Aromatase ([2]; 1 µM): 44% and 41.7% | Inhibition (%) Aromatase ([2]; 10 µM): 72.5% and 78.6% | Inhibition (%) Aromatase ([2]; 100 µM): 87% and 93.8% | inhibition at 0.1 µM ([2]; read-out: Inhibition (%) Aromatase, 0.1 µM): 11% | inhibition at 1 µM ([2]; read-out: Inhibition (%) Aromatase, 1 µM): 47.8% | inhibition at 10 µM ([2]; read-out: Inhibition (%) Aromatase, 10 µM): 75% | inhibition at 100 µM ([2]; read-out: Inhibition (%) Aromatase, 100 µM): 89% | IC50 (HeLa): 13.1 ± 1.1 µM | IC50 ([3]; HCT-116, MDA-MB-231, HeLa, MCF-7, range, read-out: IC50 values, range over the cancer cell lines tested): 2.08 to 34.9 µM | IC50 ([3]; HCT-116 and HeLa, range over the compounds named, read-out: IC50 values, range against HCT-116 and HeLa): 6.59 to 22.6 µM | IC50 ([3]; MDA-MB-231 and MCF-7, range over the compounds named, read-out: IC50 values, range against MDA-MB-231 and MCF-7): 2.08 to 13.6 µM | IC50 (CDK2): 0.288 ± 0.009 µM | Inhibition (%) CDK2 (CDK2; 0.01 µM, individual Data 1-3): 18.7% and 19.5% | Inhibition (%) CDK2 (CDK2; 0.1 µM, individual Data 1-3): 38.2% and 39.3% | Inhibition (%) CDK2 (CDK2; 1 µM, individual Data 1-3): 66.1% and 65.3% | Inhibition (%) CDK2 (CDK2; 10 µM, individual Data 1-3): 84.9% and 86% | Inhibition (%) CDK2 (CDK2; 100 µM, individual Data 1-3): 94.8% | inhibition at 100 µM (CDK2; read-out: Inhibition (%) CDK2): 93.8% | inhibition at 0.01 µM (CDK2; read-out: Inhibition (%) CDK2, 0.01 µM, individual Data 1-3): 19.1% | inhibition at 0.1 µM (CDK2; read-out: Inhibition (%) CDK2, 0.1 µM, individual Data 1-3): 38.5% | inhibition at 1 µM (CDK2; read-out: Inhibition (%) CDK2, 1 µM, individual Data 1-3): 66.9% | inhibition at 10 µM (CDK2; read-out: Inhibition (%) CDK2, 10 µM, individual Data 1-3): 85.4% | inhibition at 100 µM (CDK2; read-out: Inhibition (%) CDK2, 100 µM, individual Data 1-3): 94.1% | IC50 (HCT-116): 6.59 ± 0.3 µM | IC50 (MCF-7 [4]): 2.08 ± 0.1 µM | IC50 at 24 h [5]: 54.6 ± 3.1 µM

— PMC11766267 (International Journal of Molecular Sciences, 2025)
